# Measured values as given in PubChem BioAssay AID1963435 (Molecular Pharmacology Branch, DTP, NCI, 2024).
# Tested on: PANC-1 complex spheroid growth, percent test/control
# Assay: Anticancer human tumor PANC-1 cell line growth inhibition [Asc];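 further: spheroids exposed to agents for 7 days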;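 on viability, T/C: percent viability relative to DMSO vehicle wells taken as 100%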
# Settings: for IC50: curve of first compound; for viability, T/C: stronger effect = lower value
# Method in brief: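 Tumor cells were grown as complex spheroids with human endothelial cells (HUVEC) and human mesenchymal stem cells as stroma. Agents were tested alone and in combination, in half-log steps down from the clinical Cmax, or from 10 microM where Cmax was unknown.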
smiles,measurement,setting,value
CCN1C(C(=O)NC23CCC(C(=O)O)(CC2)CC3)C(c2cccc(Cl)c2F)C2(C(=O)Nc3cc(Cl)ccc32)C12CCCCC2 (configuration not stated) + Cc1c(S(C)(=O)=O)c(-c2cc(F)cc(N3CCN(c4ccc(NS(=O)(=O)c5ccc(NC(CCN6CCC(C(=O)OCCCP(=O)(O)O)CC6)CSc6ccccc6)c(S(=O)(=O)C(F)(F)F)c5)cc4)CC3)c2)c(-c2ccc(Cl)cc2)n1C(C)C,IC50,second compound 0.0316 µM,> 3 µM
same,IC50,second compound 0.1 µM,> 3 µM
same,IC50,second compound 0.316 µM,> 3 µM
same,IC50,second compound 1 µM,> 3 µM
same,IC50,second compound 3.16 µM,> 3 µM
same,IC50,second compound 10 µM,> 3 µM
same,"viability, T/C","second compound 0.0316 µM, first compound 0.00949 µM",99.1%
same,"viability, T/C","second compound 0.0316 µM, first compound 0.03 µM",103%
same,"viability, T/C","second compound 0.0316 µM, first compound 0.0949 µM",93.7%
same,"viability, T/C","second compound 0.0316 µM, first compound 0.3 µM",110%
same,"viability, T/C","second compound 0.0316 µM, first compound 0.949 µM",109%
same,"viability, T/C","second compound 0.0316 µM, first compound 3 µM",114%
same,"viability, T/C","second compound 0.1 µM, first compound 0.00949 µM",101%
same,"viability, T/C","second compound 0.1 µM, first compound 0.03 µM",108%
same,"viability, T/C","second compound 0.1 µM, first compound 0.0949 µM",106%
same,"viability, T/C","second compound 0.1 µM, first compound 0.3 µM",96.8%
same,"viability, T/C","second compound 0.1 µM, first compound 0.949 µM",124%
same,"viability, T/C","second compound 0.1 µM, first compound 3 µM",123%
same,"viability, T/C","second compound 0.316 µM, first compound 0.00949 µM",99.8%
same,"viability, T/C","second compound 0.316 µM, first compound 0.03 µM",96.3%
same,"viability, T/C","second compound 0.316 µM, first compound 0.0949 µM",105%
same,"viability, T/C","second compound 0.316 µM, first compound 0.3 µM",103%
same,"viability, T/C","second compound 0.316 µM, first compound 0.949 µM",117%
same,"viability, T/C","second compound 0.316 µM, first compound 3 µM",109%
same,"viability, T/C","second compound 1 µM, first compound 0.00949 µM",124%
same,"viability, T/C","second compound 1 µM, first compound 0.03 µM",107%
same,"viability, T/C","second compound 1 µM, first compound 0.0949 µM",106%
same,"viability, T/C","second compound 1 µM, first compound 0.3 µM",107%
same,"viability, T/C","second compound 1 µM, first compound 0.949 µM",118%
same,"viability, T/C","second compound 1 µM, first compound 3 µM",115%
same,"viability, T/C","second compound 3.16 µM, first compound 0.00949 µM",115%
same,"viability, T/C","second compound 3.16 µM, first compound 0.03 µM",102%
same,"viability, T/C","second compound 3.16 µM, first compound 0.0949 µM",111%
same,"viability, T/C","second compound 3.16 µM, first compound 0.3 µM",116%
same,"viability, T/C","second compound 3.16 µM, first compound 0.949 µM",118%
same,"viability, T/C","second compound 3.16 µM, first compound 3 µM",123%
same,"viability, T/C","second compound 10 µM, first compound 0.00949 µM",179%
same,"viability, T/C","second compound 10 µM, first compound 0.03 µM",189%
same,"viability, T/C","second compound 10 µM, first compound 0.0949 µM",184%
same,"viability, T/C","second compound 10 µM, first compound 0.3 µM",186%
same,"viability, T/C","second compound 10 µM, first compound 0.949 µM",172%
same,"viability, T/C","second compound 10 µM, first compound 3 µM",155%
